Molecular target: T1, TbPMI (phosphomannose isomerase) (Trypanosoma brucei, UniProt Q381V7)
T1 construct: gene Tb11.01.6410
T1 sequence (Q381V7 1-409): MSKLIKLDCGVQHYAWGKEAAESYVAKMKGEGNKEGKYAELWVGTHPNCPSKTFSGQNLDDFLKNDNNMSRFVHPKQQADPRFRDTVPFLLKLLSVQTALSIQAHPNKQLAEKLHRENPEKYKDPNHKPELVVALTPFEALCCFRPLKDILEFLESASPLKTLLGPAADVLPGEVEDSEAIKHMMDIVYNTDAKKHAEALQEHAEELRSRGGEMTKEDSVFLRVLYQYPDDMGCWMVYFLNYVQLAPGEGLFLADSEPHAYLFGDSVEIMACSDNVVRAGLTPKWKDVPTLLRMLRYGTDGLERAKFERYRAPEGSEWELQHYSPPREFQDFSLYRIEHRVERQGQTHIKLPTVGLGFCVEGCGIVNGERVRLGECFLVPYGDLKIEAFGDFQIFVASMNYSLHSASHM
Assay: HPAEC with pulsed amperiometric detection
Format: biochemical
Conditions: 0.25 mM sugar-6P, 2 mM bis-tris propane pH 7.3, 2.5 mM MgCl2, 37°C, 15 min

Row | SMILES | HPAEC with pulsed amperiometric detection (converted to Man-6P) | HPAEC with pulsed amperiometric detection (converted to Fru-6P)
1 | O=P(O)(O)OC[C@H]1OC(O)(CO)[C@@H](O)[C@@H]1O (some centres unmarked) [Fru-6P] | to be able to convert Man-6P to Fru-6P and Fru-6P to Man-6P, as expected | 
2 | O=P(O)(O)OC[C@H]1OC(O)[C@@H](O)[C@@H](O)[C@@H]1O (some centres unmarked) [Man-6P] |  | to be able to convert Man-6P to Fru-6P and Fru-6P to Man-6P, as expected

Reference: PMC3412276 (Molecular Microbiology, 2012)
